IC50 data for 56 compounds are collected here from patent US9346769B2, “Tetrazolones as inhibitors of fatty acid synthase” (Infinity Pharmaceuticals, Inc., priority 2010, dated 2016).

For this experiment, the target named is T1, human FASN (Homo sapiens, UniProt P49327).
T1 construct: was purified from SKBR3 cells using procedures modified from those in Jayakumar et al; endogenous in cells; host or cells: SKBR3 human breast cancer cells (ATCC); Endogenous enzyme purified by ammonium sulfate precipitation and a mono Q column
T1 sequence (P49327 whole entry): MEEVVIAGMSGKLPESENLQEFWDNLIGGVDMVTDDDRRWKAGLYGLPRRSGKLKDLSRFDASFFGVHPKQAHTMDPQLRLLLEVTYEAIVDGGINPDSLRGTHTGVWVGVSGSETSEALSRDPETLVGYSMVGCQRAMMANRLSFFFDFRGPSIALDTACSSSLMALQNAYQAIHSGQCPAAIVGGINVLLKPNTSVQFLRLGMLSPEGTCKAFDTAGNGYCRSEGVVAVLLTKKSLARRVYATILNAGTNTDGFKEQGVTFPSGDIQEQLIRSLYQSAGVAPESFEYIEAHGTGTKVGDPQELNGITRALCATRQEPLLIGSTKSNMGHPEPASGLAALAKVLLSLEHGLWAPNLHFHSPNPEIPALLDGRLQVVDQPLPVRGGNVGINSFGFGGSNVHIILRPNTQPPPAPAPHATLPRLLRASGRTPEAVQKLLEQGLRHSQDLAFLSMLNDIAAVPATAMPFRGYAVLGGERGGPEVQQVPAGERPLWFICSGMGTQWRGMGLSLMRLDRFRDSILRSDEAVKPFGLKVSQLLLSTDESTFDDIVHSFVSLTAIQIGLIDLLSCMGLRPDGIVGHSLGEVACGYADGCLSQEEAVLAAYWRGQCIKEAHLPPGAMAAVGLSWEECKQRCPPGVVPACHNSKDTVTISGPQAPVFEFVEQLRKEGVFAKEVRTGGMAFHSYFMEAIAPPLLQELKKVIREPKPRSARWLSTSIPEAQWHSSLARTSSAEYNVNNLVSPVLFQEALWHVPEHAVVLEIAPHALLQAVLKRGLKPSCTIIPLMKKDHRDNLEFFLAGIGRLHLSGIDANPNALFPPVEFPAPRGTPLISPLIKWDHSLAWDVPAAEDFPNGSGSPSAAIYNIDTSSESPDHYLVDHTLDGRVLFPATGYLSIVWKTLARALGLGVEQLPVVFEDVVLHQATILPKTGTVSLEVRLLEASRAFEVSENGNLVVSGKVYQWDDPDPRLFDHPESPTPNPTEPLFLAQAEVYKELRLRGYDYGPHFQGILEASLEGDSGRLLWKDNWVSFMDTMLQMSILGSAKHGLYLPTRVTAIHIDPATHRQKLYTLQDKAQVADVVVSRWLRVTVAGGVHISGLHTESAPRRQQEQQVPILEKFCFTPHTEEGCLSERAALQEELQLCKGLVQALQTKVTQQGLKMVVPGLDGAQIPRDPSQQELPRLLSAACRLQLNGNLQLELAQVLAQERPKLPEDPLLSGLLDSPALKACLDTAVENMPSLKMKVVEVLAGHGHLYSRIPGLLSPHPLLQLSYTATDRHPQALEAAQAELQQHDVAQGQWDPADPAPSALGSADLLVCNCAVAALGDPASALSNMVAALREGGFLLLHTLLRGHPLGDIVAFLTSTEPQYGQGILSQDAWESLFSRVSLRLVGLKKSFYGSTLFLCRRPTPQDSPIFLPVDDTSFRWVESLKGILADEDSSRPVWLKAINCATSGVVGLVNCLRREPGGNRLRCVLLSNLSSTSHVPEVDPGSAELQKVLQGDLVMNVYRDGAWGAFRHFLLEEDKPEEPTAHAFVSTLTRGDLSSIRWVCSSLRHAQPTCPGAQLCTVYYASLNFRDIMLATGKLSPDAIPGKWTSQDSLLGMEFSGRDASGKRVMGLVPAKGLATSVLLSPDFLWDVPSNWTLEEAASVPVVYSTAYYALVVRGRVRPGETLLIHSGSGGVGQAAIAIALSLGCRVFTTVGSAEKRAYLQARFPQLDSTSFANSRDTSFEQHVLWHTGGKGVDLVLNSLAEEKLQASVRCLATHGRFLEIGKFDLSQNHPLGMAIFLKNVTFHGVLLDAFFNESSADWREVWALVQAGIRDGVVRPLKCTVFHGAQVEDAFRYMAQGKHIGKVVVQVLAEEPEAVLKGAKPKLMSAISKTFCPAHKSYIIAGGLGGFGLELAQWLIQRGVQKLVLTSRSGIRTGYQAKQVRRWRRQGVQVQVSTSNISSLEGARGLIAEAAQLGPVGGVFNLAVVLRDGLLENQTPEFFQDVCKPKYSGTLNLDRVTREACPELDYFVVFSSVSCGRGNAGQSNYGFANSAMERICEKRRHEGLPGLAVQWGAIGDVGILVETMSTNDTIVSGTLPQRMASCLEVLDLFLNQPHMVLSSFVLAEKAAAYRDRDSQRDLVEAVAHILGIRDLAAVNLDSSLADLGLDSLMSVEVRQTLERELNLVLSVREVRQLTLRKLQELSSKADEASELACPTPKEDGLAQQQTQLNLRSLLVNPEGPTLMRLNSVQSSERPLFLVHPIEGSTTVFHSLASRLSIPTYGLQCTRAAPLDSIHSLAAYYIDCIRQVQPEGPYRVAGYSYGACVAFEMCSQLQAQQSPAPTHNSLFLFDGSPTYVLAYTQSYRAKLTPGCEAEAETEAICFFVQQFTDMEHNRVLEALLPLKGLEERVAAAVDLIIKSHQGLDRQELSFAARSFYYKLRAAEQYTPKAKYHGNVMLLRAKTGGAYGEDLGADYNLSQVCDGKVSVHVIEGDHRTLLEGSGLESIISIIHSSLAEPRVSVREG
Put plainly: FASN Scintillation Proximity Flashplate Assay. It counts as biochemical. The conditions noted are these: human FASN purified from SKBR3 cells; unstarred symbols. The protocol:
Human FASN protein (SEQ ID NO. 1) was purified from SKBR3 cells using procedures modified from those in Jayakumar et al. PNAS 1995, 92:8695-8699. SKBR3 cells were obtained from ATCC and grown in DMEM high glucose medium supplemented with 10% FBS, 1 μg/mL bovine pancreas insulin, 100 U/mL penicillin and 100 µg/mL streptomycin. The confluent cells were trypsinized and washed three times with PBS buffer before frozen in liquid N2 and stored at −80° C. Frozen cells were thawed on ice and resuspended in lysis buffer (25 mM Tris-HCl, pH 7.0, 15 mM NaCl, 1 mM EDTA, and 1 mM DTT) with protease inhibitors. The cells were lysed by sonication, and the cell debris was removed by centrifugation at 20,000 rpm for 30 min. To the supernatant, neutralized saturated ammonium sulfate solution was added to a final concentration of 35%. The solution was left on ice for 1 hr, and the precipitated proteins were harvested by centrifugation at 20,000 rpm for 30 min. The proteins were redissolved in lysis buffer without NaCl and loaded on a mono Q column. Bound proteins were eluted with a linear gradient of NaCl in lysis buffer. Each fraction was analyzed by SDS-PAGE and FASN NADPH consumption assay. The fractions containing FASN were pooled and concentrated to 2-3 mg/mL. Glycerol was added to 20%, and the protein was frozen in liquid N2 and stored at −80° C.
Acetyl-coenzyme A, malonyl-coenzyme A, NADPH, bovine gamma globulin, and ORLISTAT were purchased from Sigma (St. Louis, Mo.). Tris(2-carboxyethyl) phosphine hydrochloride (TCEP) was purchased from Pierce Biotechnologies (Rockford, Ill.). [^3H]-acetyl-coenzyme A was purchased from Moravek Biochemicals (Brea, CA). FlashPlate™ PLUS phospholipid 96-well scintillant coated microplates were purchased from Perkin Elmer Life and Analytical Sciences (Shelton, CT). The method of the FASN Scintillation Proximity FlashPlate assay is similar to that described in Weiss and Glickman Assay Drug Dev Technol 2003, 1:161-6. In a 96-well polypropylene microplate, a dilution series (typical concentrations 60 nM-1.0 mM) of test compounds were prepared in DMSO followed by a 20-fold dilution into FASN assay buffer (50 mM potassium phosphate, pH 7.0, 1.0 mM EDTA, 0.01% NP-40), of which 5.0 μL each was transferred to a FlashPlate® PLUS 96-well plate and mixed with 35 μL FASN assay buffer plus 0.5 mg/mL bovine gamma globulin and 1 mM TCEP. FASN protein (10 μL, 10 nM) was added per well, and the microplate was incubated at 37° C. for 30 min. 10 μL of 20 mM NADPH was added, and the reaction was initiated by addition of […] substrate mixture to final concentrations of 1 nM FASN, 100 μM acetyl-coenzyme A, 6 μCi [^3H]-acetyl-coenzyme A, 300 μM malonyl-coenzyme A, 2 mM NADPH, 0.5 mg/mL bovine gamma globulin, and 1 mM TCEP in a volume of 100 μL per well. Assay plates were incubated for 2 hr at 37° C. and the reaction was stopped with 2 μL of 2.5 mM stock solution of ORLISTAT in DMSO to ˜50 μM. The plates were read in a Wallac 1450 Microbeta Plus liquid scintillation counter (Perkin Elmer, Waltham, Mass.), and counts per minute (CPM) were collected over 2 min. Each inhibitor well CPM was compared to the maximum FASN enzyme activity (Max) CPM and the background (Min) CPM, as measured by omission of FASN enzyme in the background well. % Inhibition values were calculated, and curves were fitted by a four-parameter logistic function to yield IC50 values:
Compounds were assayed as inhibitors of human FASN using the above-described FASN Scintillation Proximity Flashplate Assay (IC50; nM) or FASN NADPH Consumption Assay (*) (IC50; nM). The corresponding activity of the isolated compound is also provided along with the measured mass (ES^+).

Turning to `COc1ccc(N(C(=O)n2nnn(-c3ccccc3OC)c2=O)C(C)C)cc1C(=O)O`, the IC50 – broadly, the concentration needed to halve the response being measured – was in the range of 200 to 5000 nM.

Take `CCN(C(=O)n1nnn(-c2ccccc2OC)c1=O)c1ccc(OC)c(C(=O)OCc2ccccc2)c1`: the IC50 is < 15 nM.

Turning to `CCN(C(=O)n1nnn(-c2ccccc2OC)c1=O)c1ccc(OC)cc1`, the IC50 is 100 to 200 nM.

Turning to `COc1ccc(C(=O)O)cc1N(C(=O)n1nnn(-c2c(F)cccc2OC)c1=O)C(C)C`, the IC50 is < 15 nM.

Turning to `COc1cccc(F)c1-n1nnn(C(=O)N(CC(C)(C)C)c2cccc(C(=O)O)c2)c1=O`, the IC50 is 200 to 5000 nM.

As for `COc1cccc(F)c1-n1nnn(C(=O)N(c2ccccc2)C2CCCC2)c1=O`, the IC50 is < 15 nM.

Consider `COc1cccc(F)c1-n1nnn(C(=O)N(c2ccc(OCCc3ccccc3)c(C(=O)O)c2)C(C)C)c1=O`, for which the IC50 is 15 to 100 nM.

With `CCN(C(=O)n1nnn(-c2c(F)cccc2OC)c1=O)c1cc(C(=O)O)ccc1OC(C)C`, the IC50 lay in the range of 15 to 100 nM.

On to `CCN(C(=O)n1nnn(-c2c(F)cccc2OC)c1=O)c1cc(Oc2ccc(C(=O)OCc3ccccc3)cc2)ccc1C`, for which the IC50 fell in the range of 200 to 5000 nM.

For `CCN(C(=O)n1nnn(-c2c(F)cccc2OC)c1=O)c1cccc(Oc2cccc(C(=O)O)c2)c1`, the IC50 was < 15 nM.

Take `COc1cccc(F)c1-n1nnn(C(=O)N(c2cccc(C(=O)O)c2)C(C)(C)C)c1=O`: the IC50 lay within 200 to 5000 nM.

`CCN(C(=O)n1nnn(-c2c(F)cccc2OC)c1=O)c1cc(Oc2ccc(C(=O)O)cc2)ccc1C` had an IC50 of 15 to 100 nM.

Turning to `COc1ccc(N(C(=O)n2nnn(-c3c(F)cccc3OC)c2=O)C(C)C)cc1C(=O)OCc1ccccc1`, the IC50 was < 15 nM.

Take `COc1ccc(N(C(=O)n2nnn(-c3c(F)cccc3OC)c2=O)C(C)C)cc1C(=O)O`: the IC50 was in the range of 15 to 100 nM.

Consider `COc1cccc(F)c1-n1nnn(C(=O)N(c2cccc(C(=O)OCc3ccccc3)c2)C2CC2)c1=O`, for which the IC50 was < 15 nM.

Consider `CCN(C(=O)n1nnn(-c2c(F)cccc2OC)c1=O)c1cc(C(=O)O)ccc1OCCc1ccccc1`, for which the IC50 was < 15 nM.

In turn, `COc1cccc(F)c1-n1nnn(C(=O)N(c2ccccc2)C2CCOCC2)c1=O` had an IC50 of 15 to 100 nM.

On to `CCCCOc1ccc(C(=O)O)cc1N(CC)C(=O)n1nnn(-c2c(F)cccc2OC)c1=O`, for which the IC50 was < 15 nM.

Compound `COc1cccc(F)c1-n1nnn(C(=O)N(CC(C)(C)C)c2cccc(C(=O)OCc3ccccc3)c2)c1=O` returned a 50% inhibitory concentration (IC50) of 15 to 100 nM.

On to `COc1cccc(F)c1-n1nnn(C(=O)N(c2cccc(C(=O)OCc3ccccc3)c2)C(C)(C)C)c1=O`, for which the IC50 was in the range of 200 to 5000 nM.

With `CCN(C(=O)n1nnn(-c2c(F)cccc2OC)c1=O)c1ccccc1`, the IC50 is < 15 nM.

Regarding `CCC(C)N(C(=O)n1nnn(-c2c(F)cccc2OC)c1=O)c1cccc(C(=O)OCc2ccccc2)c1` (centres unmarked), the IC50 is < 15 nM.

Turning to `COc1ccc(C(=O)O)cc1N(C(=O)n1nnn(-c2c(F)cccc2OC)c1=O)C1CCCCC1`, the IC50 is < 15 nM.

For the compound `COCCOc1ccc(N(C(=O)n2nnn(-c3c(F)cccc3OCCOC)c2=O)C2CCCCC2)cc1C(=O)O`, the IC50 was in the range of 15 to 100 nM.

For `COCCOc1cccc(F)c1-n1nnn(C(=O)N(c2ccc(OC)c(C(=O)O)c2)C2CCCCC2)c1=O`, the IC50 was < 15 nM.

As for `COc1ccc(N(C(=O)n2nnn(-c3c(F)cccc3OCC(OC)OC)c2=O)C2CCCCC2)cc1C(=O)O`, the IC50 is < 15 nM.

As for `COc1ccc(N(C(=O)n2nnn(-c3c(F)cccc3OC(C)C)c2=O)C2CCCCC2)cc1C(=O)O`, the IC50 was < 15 nM.

Take `COc1ccc(C(=O)O)cc1N(C(=O)n1nnn(-c2c(F)cccc2OC(C)C)c1=O)C1CCCCC1`: the IC50 fell in the range of 15 to 100 nM.

The compound `COc1ccc(C(=O)OCc2ccccc2)cc1N(C(=O)n1nnn(-c2c(F)cccc2OC(C)C)c1=O)C1CCCCC1` returned an IC50 of 15 to 100 nM.

For `COc1ccc(N(C(=O)n2nnn(-c3c(F)cccc3C(=O)O)c2=O)C(C)C)cc1C(=O)OCc1ccccc1`, the IC50 is 15 to 100 nM.

The compound `CCN(C(=O)n1nnn(-c2c(F)cccc2C(=O)N2CCOCC2)c1=O)c1ccccc1Oc1ccccc1` yielded an IC50 of 200 to 5000 nM.

Regarding `COc1ccc(N(C(=O)n2nnn(-c3c(F)cccc3C(=O)N3CCOCC3)c2=O)C(C)C)cc1C(=O)OCc1ccccc1`, the IC50 is < 15 nM.

`COc1ccc(N(C(=O)n2nnn(-c3c(F)cccc3C(=O)N3CCOCC3)c2=O)C(C)C)cc1C(=O)O` showed an IC50 of 200 to 5000 nM.

Turning to `COc1ccc(N(C(=O)n2nnn(-c3c(F)cccc3C(=O)N3CCCCC3)c2=O)C(C)C)cc1C(=O)OCc1ccccc1`, the IC50 was < 15 nM.

For `COc1ccc(N(C(=O)n2nnn(-c3c(F)cccc3C(=O)N3CCCCC3)c2=O)C(C)C)cc1C(=O)O`, the IC50 was 15 to 100 nM.

`CCN(C(=O)n1nnn(-c2c(F)cccc2C(=O)N2CCCCC2)c1=O)c1ccccc1Oc1ccccc1` came in with an IC50 of 100 to 200 nM.

`CCN(C(=O)n1nnn(-c2c(F)cccc2C(=O)NCc2ccccc2)c1=O)c1ccccc1`: the IC50 was < 15 nM.

For `CCN(C(=O)n1nnn(-c2c(F)cccc2C(=O)NCc2ccccc2)c1=O)c1ccccc1Oc1ccccc1`, the IC50 was in the range of 15 to 100 nM.

For the compound `COc1ccc(N(C(=O)n2nnn(-c3c(F)cccc3C(=O)N(C)Cc3ccccc3)c2=O)C(C)C)cc1C(=O)O`, the IC50 is < 15 nM.

As to `COc1ccc(N(C(=O)n2nnn(-c3c(F)cccc3C(=O)N(C)Cc3ccccc3)c2=O)C(C)C)cc1C(=O)OCc1ccccc1`, the IC50 was < 15 nM.

With `COc1ccc(N(C(=O)n2nnn(-c3c(F)cccc3C(=O)N(C)c3ccccc3)c2=O)C(C)C)cc1C(=O)O`, the IC50 is 15 to 100 nM.

For the compound `COc1ccc(N(C(=O)n2nnn(-c3c(F)cccc3C(=O)N(C)C)c2=O)C(C)C)cc1C(=O)O`, the IC50 fell in the range of 200 to 5000 nM.

Take `COc1ccc(N(C(=O)n2nnn(-c3c(F)cccc3C(=O)N(C)C)c2=O)C(C)C)cc1C(=O)OCc1ccccc1`: the IC50 is < 15 nM.

As for `COc1ccc(N(C(=O)n2nnn(-c3c(F)cccc3N3CCOCC3)c2=O)C2CCCCC2)cc1C(=O)O`, the IC50 lay in the range of 15 to 100 nM.

With `COc1ccc(COC(=O)c2cc(N(C(=O)n3nnn(-c4cccc5nsnc45)c3=O)C3CCCCC3)ccc2OC)cc1`, the IC50 was < 15 nM.

`COc1ccc(N(C(=O)n2nnn(-c3cccc4nsnc34)c2=O)C2CCCCC2)cc1C(=O)O` yielded an IC50 of 15 to 100 nM.

Compound `COc1ccc(N(C(=O)n2nnn(-c3cccc(N)c3N)c2=O)C2CCCCC2)cc1C(=O)O` gave an IC50 of 15 to 100 nM.

As to `COc1ccc(N(C(=O)n2nnn(-c3cccc4nc[nH]c34)c2=O)C2CCCCC2)cc1C(=O)O`, the IC50 was 100 to 200 nM.

Take `O=C(O)c1ccc(N(C(=O)n2nnn(-c3c(F)cccc3F)c2=O)C2CCCCC2)cn1`: the IC50 is < 15 nM.

`CN(Cc1cccc2ccccc12)C(=O)n1nnn(-c2c(F)cccc2F)c1=O` gave an IC50 of 100 to 200 nM.

With `CC(C)N(C(=O)n1nnn(-c2c(F)cccc2F)c1=O)c1cc(C(=O)O)ccc1Oc1ccccc1`, the concentration for half-maximal inhibition (IC50) was < 15 nM.

In the case of `COc1cccc(F)c1-n1nnn(C(=O)N(c2cc(C(=O)O)ccc2Oc2ccccc2)C(C)C)c1=O`, the IC50 was < 15 nM.

As to `O=C(O)c1ccc(N(C(=O)n2nnn(-c3c(F)cccc3F)c2=O)C2CCCCC2)c(Oc2ccccc2)c1`, the IC50 is < 15 nM.

Take `O=C(O)c1ccc(N(C(=O)n2nnn(-c3c(F)cccc3F)c2=O)C2CCCC2)c(Oc2ccccc2)c1`: the IC50 is < 15 nM.

As to `COc1cc(Oc2ccccc2)c(N(C(=O)n2nnn(-c3c(F)cccc3F)c2=O)C2CCCCC2)cc1C(=O)O`, the IC50 is < 15 nM.

As for `COc1cc(Oc2ccccc2)c(N(C(=O)n2nnn(-c3c(F)cccc3F)c2=O)C2CCCC2)cc1C(=O)O`, the IC50 is < 15 nM.
